Test results as given in the supplement of paper PMC10307832.

Legend:
Experiment in all cases: relative viability (nuclei count vs DMSO), 5 days (fraction); higher = more cells survive
BEN = test system: BEN
In short: (§1)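 After 5 days of treatment, lung cancer cells in 1536-well plates were fixed and stained in a single step (final 0.05% Triton X-100, 1% formaldehyde, 1 ug/ml Hoechst) and their nuclei counted on 4× images. Treatment had been applied by pin tool the day after seeding as one drug alone or as a fixed anchor-drug dose with five library-drug doses (not always all listed) in √10 steps. Relative viability is the nuclei count of treated wells divided by that of vehicle wells, and values are medians of duplicate plates.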

LK-2 = test system: LK-2
In short: as §1

ChaGo-K-1 = test system: ChaGo-K-1
In short: as §1

PC-3 [JPC-3] = test system: PC-3 [JPC-3]
In short: as §1

NCI-H1355 = test system: NCI-H1355
In short: as §1

NCI-H2342 = test system: NCI-H2342
In short: as §1

NCI-H2087 = test system: NCI-H2087
In short: as §1

NCI-H1651 = test system: NCI-H1651
In short: as §1

NCI-H838 = test system: NCI-H838
In short: as §1

NCI-H661 = test system: NCI-H661
In short: as §1

LC-2-ad = test system: LC-2-ad
In short: as §1

SK-MES-1 = test system: SK-MES-1
In short: as §1

NCI-H1944 = test system: NCI-H1944
In short: as §1

HCC-78 = test system: HCC-78
In short: as §1

NCI-H650 = test system: NCI-H650
In short: as §1

NCI-H1666 = test system: NCI-H1666
In short: as §1

LCLC-97TM1 = test system: LCLC-97TM1
In short: as §1

NCI-H1975 = test system: NCI-H1975
In short: as §1

LU99A = test system: LU99A
In short: as §1

LXF-289 = test system: LXF-289
In short: as §1

NCI-H358 = test system: NCI-H358
In short: as §1

NCI-H596 = test system: NCI-H596
In short: as §1

In the case of `CCN(CC)CCCCNc1ncc2cc(-c3cc(OC)cc(OC)c3)c(NC(=O)NC(C)(C)C)nc2n1` + Nc1nc2[nH]cc(CCc3ccc(C(=O)N[C@@H](CCC(=O)O)C(=O)O)cc3)c2c(=O)[nH]1 [Pemetrexed] (partner 0.2 µM), the relative viability (BEN; first compound 0.01 µM) is reported as 0.664, the relative viability (BEN; first compound 0.03162 µM) is reported as 0.681 and the relative viability (BEN; first compound 0.1 µM) is reported as 0.826. It also gave a relative viability (BEN; first compound 0.3162 µM) of 0.77, a relative viability (BEN; first compound 1 µM) of 0.69 and a relative viability (LK-2; first compound 0.01 µM) of 0.267. It also gave a relative viability (LK-2; first compound 0.03162 µM) of 0.272, a relative viability (LK-2; first compound 0.1 µM) of 0.273 and a relative viability (LK-2; first compound 0.3162 µM) of 0.149. The relative viability (LK-2; first compound 1 µM) was 0.145, the relative viability (ChaGo-K-1; first compound 0.01 µM) was 0.269 and the relative viability (ChaGo-K-1; first compound 0.03162 µM) was 0.407. It also gave a relative viability (ChaGo-K-1; first compound 0.1 µM) of 0.267, a relative viability (ChaGo-K-1; first compound 0.3162 µM) of 0.272 and a relative viability (ChaGo-K-1; first compound 1 µM) of 0.265. It also gave a relative viability (PC-3 [JPC-3]; first compound 0.03162 µM) of 1, a relative viability (PC-3 [JPC-3]; first compound 0.1 µM) of 1.15 and a relative viability (PC-3 [JPC-3]; first compound 0.3162 µM) of 1.7. It also gave a relative viability (PC-3 [JPC-3]; first compound 1 µM) of 0.883, a relative viability (NCI-H1355; first compound 0.01 µM) of 1.06 and a relative viability (NCI-H1355; first compound 0.03162 µM) of 1.09. The relative viability (NCI-H1355; first compound 0.1 µM) was 1.17, the relative viability (NCI-H1355; first compound 0.3162 µM) was 1.11 and the relative viability (NCI-H1355; first compound 1 µM) was 1.02. The relative viability (NCI-H2342; first compound 0.01 µM) was 0.762, the relative viability (NCI-H2342; first compound 0.03162 µM) was 0.777 and the relative viability (NCI-H2342; first compound 0.1 µM) was 0.803. For the same compound, the relative viability (NCI-H2342; first compound 0.3162 µM) was 0.818, the relative viability (NCI-H2342; first compound 1 µM) was 0.755 and the relative viability (NCI-H2087; first compound 0.01 µM) was 0.716. The relative viability (NCI-H2087; first compound 0.03162 µM) was 0.637, the relative viability (NCI-H2087; first compound 0.1 µM) was 0.746 and the relative viability (NCI-H2087; first compound 0.3162 µM) was 0.645. For the same compound, the relative viability (NCI-H2087; first compound 1 µM) was 0.727, the relative viability (NCI-H1651; first compound 0.01 µM) was 0.597 and the relative viability (NCI-H1651; first compound 0.03162 µM) was 0.635. It also gave a relative viability (NCI-H1651; first compound 0.1 µM) of 0.643, a relative viability (NCI-H1651; first compound 0.3162 µM) of 0.787 and a relative viability (NCI-H1651; first compound 1 µM) of 0.495. It also gave a relative viability (NCI-H838; first compound 0.01 µM) of 0.242, a relative viability (NCI-H838; first compound 0.03162 µM) of 0.245 and a relative viability (NCI-H838; first compound 0.1 µM) of 0.225. The relative viability (NCI-H838; first compound 0.3162 µM) was 0.234, the relative viability (NCI-H838; first compound 1 µM) was 0.224 and the relative viability (NCI-H661; first compound 0.01 µM) was 0.968. For the same compound, the relative viability (NCI-H661; first compound 0.03162 µM) was 0.886, the relative viability (NCI-H661; first compound 0.1 µM) was 0.961 and the relative viability (NCI-H661; first compound 0.3162 µM) was 0.986. It also gave a relative viability (NCI-H661; first compound 1 µM) of 0.95, a relative viability (LC-2-ad; first compound 0.01 µM) of 0.293 and a relative viability (LC-2-ad; first compound 0.03162 µM) of 0.267. It also gave a relative viability (LC-2-ad; first compound 0.1 µM) of 0.272, a relative viability (LC-2-ad; first compound 0.3162 µM) of 0.264 and a relative viability (LC-2-ad; first compound 1 µM) of 0.271. It also gave a relative viability (SK-MES-1; first compound 0.01 µM) of 1.11, a relative viability (SK-MES-1; first compound 0.03162 µM) of 0.94 and a relative viability (SK-MES-1; first compound 0.1 µM) of 1.05. For the same compound, the relative viability (SK-MES-1; first compound 0.3162 µM) was 1.07, the relative viability (SK-MES-1; first compound 1 µM) was 0.98 and the relative viability (NCI-H1944; first compound 0.01 µM) was 0.603. For the same compound, the relative viability (NCI-H1944; first compound 0.03162 µM) was 0.804, the relative viability (NCI-H1944; first compound 0.1 µM) was 0.705 and the relative viability (NCI-H1944; first compound 0.3162 µM) was 0.631. For the same compound, the relative viability (NCI-H1944; first compound 1 µM) was 0.605, the relative viability (HCC-78; first compound 0.01 µM) was 0.919 and the relative viability (HCC-78; first compound 0.03162 µM) was 0.933. It also gave a relative viability (HCC-78; first compound 0.1 µM) of 0.949, a relative viability (HCC-78; first compound 0.3162 µM) of 0.947 and a relative viability (HCC-78; first compound 1 µM) of 0.89. The relative viability (NCI-H650; first compound 0.01 µM) was 0.877, the relative viability (NCI-H650; first compound 0.03162 µM) was 0.842 and the relative viability (NCI-H650; first compound 0.1 µM) was 1.04. It also gave a relative viability (NCI-H650; first compound 0.3162 µM) of 1.03, a relative viability (NCI-H650; first compound 1 µM) of 0.948 and a relative viability (NCI-H1666; first compound 0.01 µM) of 0.814. The relative viability (NCI-H1666; first compound 0.03162 µM) was 0.796, the relative viability (NCI-H1666; first compound 0.1 µM) was 0.783 and the relative viability (NCI-H1666; first compound 0.3162 µM) was 0.942. The relative viability (NCI-H1666; first compound 1 µM) was 0.808, the relative viability (LCLC-97TM1; first compound 0.01 µM) was 0.174 and the relative viability (LCLC-97TM1; first compound 0.03162 µM) was 0.185. It also gave a relative viability (LCLC-97TM1; first compound 0.1 µM) of 0.174, a relative viability (LCLC-97TM1; first compound 0.3162 µM) of 0.159 and a relative viability (LCLC-97TM1; first compound 1 µM) of 0.189. The relative viability (NCI-H1975; first compound 0.01 µM) was 0.286, the relative viability (NCI-H1975; first compound 0.03162 µM) was 0.306 and the relative viability (NCI-H1975; first compound 0.1 µM) was 0.318. The relative viability (NCI-H1975; first compound 0.3162 µM) was 0.331, the relative viability (NCI-H1975; first compound 1 µM) was 0.283 and the relative viability (LU99A; first compound 0.01 µM) was 0.206. It also gave a relative viability (LU99A; first compound 0.03162 µM) of 0.177, a relative viability (LU99A; first compound 0.1 µM) of 0.214 and a relative viability (LU99A; first compound 0.3162 µM) of 0.177. The relative viability (LU99A; first compound 1 µM) was 0.195, the relative viability (LXF-289; first compound 0.01 µM) was 0.923 and the relative viability (LXF-289; first compound 0.03162 µM) was 1.02. For the same compound, the relative viability (LXF-289; first compound 0.1 µM) was 0.907, the relative viability (LXF-289; first compound 0.3162 µM) was 0.884 and the relative viability (LXF-289; first compound 1 µM) was 0.849. It also gave a relative viability (NCI-H358; first compound 0.01 µM) of 0.163, a relative viability (NCI-H358; first compound 0.03162 µM) of 0.169 and a relative viability (NCI-H358; first compound 0.1 µM) of 0.16. The relative viability (NCI-H358; first compound 0.3162 µM) was 0.216, the relative viability (NCI-H358; first compound 1 µM) was 0.167 and the relative viability (NCI-H596; first compound 0.01 µM) was 0.453. It also gave a relative viability (NCI-H596; first compound 0.03162 µM) of 0.496, a relative viability (NCI-H596; first compound 0.1 µM) of 0.488 and a relative viability (NCI-H596; first compound 0.3162 µM) of 0.584. It also gave a relative viability (NCI-H596; first compound 1 µM) of 0.443.
